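Step 1: Grow cells in 96-well plates. Step 2: Expose to compound for 48 hours at 5 concentrations. Step 3: Interpolate endpoints linearly; if unreached, use highest concentration. TGI: concentration producing complete growth inhibition.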
System: HCC-2998 colon
Experiment: DTP human tumour cell line panel, 48 h

| Compound | TGI |
| --- | --- |
| C(/C=C/Nc1ccc(Oc2ccccc2)cc1)=Nc1ccc(Oc2ccccc2)cc1 | 29.4 µM |
| O=C(/C=C/c1ccc2ccccc2c1)NCc1ccc(C(=O)NCCc2ccccc2)cc1 | > 100 µM |
| Nc1nc(-[n+]2ccc(-c3ccncc3)cc2)nc(Cl)c1Cl | > 100 µM |
| CC(C)OC(=O)/C=C/C(=O)O/C=C/[N+](=O)[O-] | 50.2 µM |
| C[C@@H](c1ccccc1)n1c(N)c(C#N)c2ccc([N+](=O)[O-])cc2c1=O | 39.4 µM |
| CC1(C)OC(=O)N(c2ccccc2)C12C=Cc1cc([N+](=O)[O-])ccc1O2 (configuration not stated) | > 100 µM |
| COC1=C(OC)C(=O)C(Cc2c(C)nc3sccn23)=C(C)C1=O | 40.3 µM |
| CCOc1ncn(-c2ccc(NC(=S)NC3OC(CO)C(O)C(O)C3O)cc2)n1 (configuration not stated) | > 100 µM |
| CC1(C)/C(=C/N=O)N(O)C(C)(C)N1O | > 100 µM |
| COC(=O)c1cc2c(cc1Cl)Sc1nnc(Nc3ccc(C)cc3)n1S2(=O)=O | 17.5 µM |
| N#Cc1c(-c2ccccc2)[nH]c2ccc(Cl)cc2c1=O | > 100 µM |
| N#C[C@@H](c1ccccn1)c1ncccc1[N+](=O)[O-] | > 100 µM |
| N#Cc1[nH]c(=O)n(-c2ccccc2)c1N | > 10 µM |
| CC(=O)Oc1ccc2cc(-c3ccccc3OC(C)=O)c(=O)oc2c1 | > 100 µM |
| O=[N+]([O-])c1ccc(S(=O)(=O)n2c3ccc(Br)cc3c3nc4ccccc4nc32)cc1 | > 100 µM |
| CC(=O)[C@@H](C)C(=O)N1C(=O)OC[C@@]12[C@@H]1CC[C@@H](C1)C2(C)C | > 100 µM |
| COc1cc(-c2nc3ccccn3c2/N=C/c2cc(Br)cc(Br)c2O)ccc1O | > 100 µM |
| COC(=O)Nc1nc2ccc(S(=O)(=O)SC)cc2[nH]1 | 42.4 µM |
| CCN(CC)CCSc1c2cc(OC)ccc2nc2ccc(OC)cc12 | 40.5 µM |
| CO/C=C(/C(=O)OC)c1ccccc1COc1cccc(C(F)(F)F)c1 | > 100 µM |
| CCOC(=O)c1ccc(NCc2ccc3oc(=O)c(-c4ccccc4)nc3c2)cc1 | > 100 µM |
| C1=Cc2cc3c(c4nccc(c24)N1)OCO3 | 28.6 µM |
| CC(C)=CCC(O)[C@](C)(O)[C@H]1[C@H](O)C[C@@]2(C)[C@@H]3CCc4cc(O)c(OC5OC(CO)C(O)C(O)C5O)cc4C3(C)C(=O)C[C@]12C (some centres not stated) | > 100 µM |

System: SW-620 colon
Experiment: DTP human tumour cell line panel, 48 h

| Compound | TGI |
| --- | --- |
| C(/C=C/Nc1ccc(Oc2ccccc2)cc1)=Nc1ccc(Oc2ccccc2)cc1 | 34.6 µM |
| O=C(/C=C/c1ccc2ccccc2c1)NCc1ccc(C(=O)NCCc2ccccc2)cc1 | > 100 µM |
| Nc1nc(-[n+]2ccc(-c3ccncc3)cc2)nc(Cl)c1Cl | > 100 µM |
| CC(C)OC(=O)/C=C/C(=O)O/C=C/[N+](=O)[O-] | > 100 µM |
| C[C@@H](c1ccccc1)n1c(N)c(C#N)c2ccc([N+](=O)[O-])cc2c1=O | 48.3 µM |
| CC1(C)OC(=O)N(c2ccccc2)C12C=Cc1cc([N+](=O)[O-])ccc1O2 (configuration not stated) | > 100 µM |
| COC1=C(OC)C(=O)C(Cc2c(C)nc3sccn23)=C(C)C1=O | 34.8 µM |
| CCOc1ncn(-c2ccc(NC(=S)NC3OC(CO)C(O)C(O)C3O)cc2)n1 (configuration not stated) | > 100 µM |
| CC1(C)/C(=C/N=O)N(O)C(C)(C)N1O | > 100 µM |
| N#Cc1c(-c2ccccc2)[nH]c2ccc(Cl)cc2c1=O | > 100 µM |
| N#C[C@@H](c1ccccn1)c1ncccc1[N+](=O)[O-] | > 100 µM |
| N#Cc1[nH]c(=O)n(-c2ccccc2)c1N | > 10 µM |
| COC(=O)C1=CS/C(=C2\S[C@@H]3[C@H](S2)[C@H]2C=C[C@@H]3C2)S1 | > 100 µM |
| CC(=O)Oc1ccc2cc(-c3ccccc3OC(C)=O)c(=O)oc2c1 | > 100 µM |
| O=[N+]([O-])c1ccc(S(=O)(=O)n2c3ccc(Br)cc3c3nc4ccccc4nc32)cc1 | > 100 µM |
| CC(=O)[C@@H](C)C(=O)N1C(=O)OC[C@@]12[C@@H]1CC[C@@H](C1)C2(C)C | > 100 µM |
| COc1cc(-c2nc3ccccn3c2/N=C/c2cc(Br)cc(Br)c2O)ccc1O | 71.2 µM |
| COC(=O)Nc1nc2ccc(S(=O)(=O)SC)cc2[nH]1 | 25.2 µM |
| CCN(CC)CCSc1c2cc(OC)ccc2nc2ccc(OC)cc12 | > 100 µM |
| CCOC(=O)c1ccc(NCc2ccc3oc(=O)c(-c4ccccc4)nc3c2)cc1 | 50.4 µM |
| C1=Cc2cc3c(c4nccc(c24)N1)OCO3 | > 57.8 µM |
| CC(C)=CCC(O)[C@](C)(O)[C@H]1[C@H](O)C[C@@]2(C)[C@@H]3CCc4cc(O)c(OC5OC(CO)C(O)C(O)C5O)cc4C3(C)C(=O)C[C@]12C (some centres not stated) | > 100 µM |
| C[N+]1(C)CCc2cc(O)c(O)cc2C1Cc1ccc(O)c(O)c1 (configuration not stated) | 76.7 µM |
| O=C1NC2O[C@H](CNC(=O)c3cc(Br)c[nH]3)CC2(O)N1 (mixture of isomers) | > 100 µM |

System: DU-145 prostate
Experiment: DTP human tumour cell line panel, 48 h

| Compound | TGI |
| --- | --- |
| C(/C=C/Nc1ccc(Oc2ccccc2)cc1)=Nc1ccc(Oc2ccccc2)cc1 | 39.5 µM |
| O=C(/C=C/c1ccc2ccccc2c1)NCc1ccc(C(=O)NCCc2ccccc2)cc1 | > 100 µM |
| Nc1nc(-[n+]2ccc(-c3ccncc3)cc2)nc(Cl)c1Cl | > 100 µM |
| CC(C)OC(=O)/C=C/C(=O)O/C=C/[N+](=O)[O-] | > 100 µM |
| C[C@@H](c1ccccc1)n1c(N)c(C#N)c2ccc([N+](=O)[O-])cc2c1=O | 33 µM |
| CC1(C)OC(=O)N(c2ccccc2)C12C=Cc1cc([N+](=O)[O-])ccc1O2 (configuration not stated) | > 100 µM |
| COC1=C(OC)C(=O)C(Cc2c(C)nc3sccn23)=C(C)C1=O | 38.6 µM |
| CCOc1ncn(-c2ccc(NC(=S)NC3OC(CO)C(O)C(O)C3O)cc2)n1 (configuration not stated) | > 100 µM |
| CC1(C)/C(=C/N=O)N(O)C(C)(C)N1O | > 100 µM |
| COC(=O)c1cc2c(cc1Cl)Sc1nnc(Nc3ccc(C)cc3)n1S2(=O)=O | 7.31 µM |
